In patent US20040180395A1, “Method for detecting calpain3 activity in a biological sample and peptides for implementing said method” (priority 2001, published 2004):
Primed or numbered codes have the meaning given here. The star is where a group is joined. Mca = COc1ccc2c(CC(=O)*)cc(=O)oc2c1; Dnp′ = not defined here

How the values were obtained:
[1] = system: calpain 3; assay: Cleavage of autolytic-site peptides by extracts of normal (+/+) or calpain 3-deficient (−/−) mouse quadriceps; assay type: biochemical; conditions: quadriceps lysates, over 6 hours; FIG. 7
Method: (§1) Final volume of 200 μl; calcium (CaCl2) 10 mM final concentration; fluorescent peptides 1.9 μM final concentration.
(§2) The reaction is carried out at 37° C., either over one hour (with in this case measurement of fluorescence every 50 seconds) or over 6 hours (measurement every 2 minutes).
(§3) Excitation wavelengths of Mca: 325 nm.
(§4) Emission wavelengths of […]: 392 nm.
(§5) Reaction buffer: 100 mM NaCl, 50 mM HEPES, 10 mM DTT, 1 mM EDTA, 10% glycerol, 0.1% CHAPS, 100 ng/μl BSA, pH=7.4, filtration. Storage at ambient temperature.
Principle: The muscles are ground for the purpose of preparing protein extracts the properties of which may then be studied.
Material: Quadriceps of normal mice and of calpain 3-deficient mice.
The muscles are ground in liquid nitrogen. The ground material is resuspended in the lysis buffer (cf. composition in the cell lysis protocol above) in a proportion of 19 μl of lysis buffer per milligram of ground tissue.
The buffer is allowed to act for 10 minutes in ice. Centrifugation is carried out at 10 000 g for 10 minutes at 4° C.
(§6) The supernatant is recovered and stored at −20° C.
Activity assays were also carried out on lysates of muscles from mice deficient or not deficient in calpain 3. The assays were carried out using quadriceps lysates (FIG. 7).

[2] = system: calpain 3; assay: Cleavage of autolytic-site peptides by extracts of C2C12 cells transfected or not transfected with the plasmid encoding calpain 3; assay type: biochemical, murine; conditions: FIG. 3; for difference in cleavage activity between calpain 3-transfected and untransfected cells: C2C12 extracts, efficiency of transfection less than 10%; for activity of C2C12 extracts on the peptide (fluorescence): transfected or untransfected C2C12 extracts
Method: as §1, §2, §3, §4, §5
Cell Lines Used: C2C12: murine myoblasts;
Medium used for C2C12: DMEM+10% FCS
The desired cells are trypsinized and then the wells are seeded in such a way that the cells are at 50-80% confluency the following day.
Allow the cells to grow at 37° C./7% CO2.
(§7) Principle: The animal cells, which may or may not be transfected, are lysed for the purpose of preparing protein extracts the properties of which may be studied.
(§8) The culture medium is removed from the wells and the wells are washed with PBS (phosphate buffered Dulbecco solution (without calcium, or magnesium, or sodium bicarbonate)—Gibco BRL).
(§9) The cells are harvested and centrifuged at 500 g for 10 min at 4° C.
(§10) The supernatant is removed and the cells are taken up in the lysis buffer (50 mM HEPES, 1 mM DTT, 0.1 mM EDTA, 0.1% CHAPS, pH=7.4) in a proportion of 700 μl of lysis buffer per well.
(§11) The buffer is allowed to act at 4° C. for 5 minutes. Centrifugation is carried out at 10 000 g/10 minutes/4° C.
as §6
It is known that calpain 3 has greater stability in muscle cells due to the presence of titin. For the purpose of proving that calpain 3 could cleave its own autolytic sites, it was therefore overexpressed in C2C12 cells by transfecting these cells with a plasmid encoding calpain 3. A control transfection with pECFP was carried out at the same time as the transfection with the plasmid encoding calpain 3. The efficiency of transfection on the C2C12s is less than 10%. The proteins were then extracted and their activity was assayed on the autolytic sites (FIG. 3).

[3] = biological target: T1, Calpain 2 (Rattus norvegicus, UniProt Q07009); assay: Assay of specificity of autolytic-site peptide cleavage (FRET fluorescence) by commercial calpain 2; assay type: biochemical; conditions: calpain 2, rat recombinant; 10 mM CaCl2; peptide 1.9 μM; 37° C.; FIG. 2
T1 construct: purchased Calbiochem; host or cells: E. coli
T1 sequence (Q07009 1-700): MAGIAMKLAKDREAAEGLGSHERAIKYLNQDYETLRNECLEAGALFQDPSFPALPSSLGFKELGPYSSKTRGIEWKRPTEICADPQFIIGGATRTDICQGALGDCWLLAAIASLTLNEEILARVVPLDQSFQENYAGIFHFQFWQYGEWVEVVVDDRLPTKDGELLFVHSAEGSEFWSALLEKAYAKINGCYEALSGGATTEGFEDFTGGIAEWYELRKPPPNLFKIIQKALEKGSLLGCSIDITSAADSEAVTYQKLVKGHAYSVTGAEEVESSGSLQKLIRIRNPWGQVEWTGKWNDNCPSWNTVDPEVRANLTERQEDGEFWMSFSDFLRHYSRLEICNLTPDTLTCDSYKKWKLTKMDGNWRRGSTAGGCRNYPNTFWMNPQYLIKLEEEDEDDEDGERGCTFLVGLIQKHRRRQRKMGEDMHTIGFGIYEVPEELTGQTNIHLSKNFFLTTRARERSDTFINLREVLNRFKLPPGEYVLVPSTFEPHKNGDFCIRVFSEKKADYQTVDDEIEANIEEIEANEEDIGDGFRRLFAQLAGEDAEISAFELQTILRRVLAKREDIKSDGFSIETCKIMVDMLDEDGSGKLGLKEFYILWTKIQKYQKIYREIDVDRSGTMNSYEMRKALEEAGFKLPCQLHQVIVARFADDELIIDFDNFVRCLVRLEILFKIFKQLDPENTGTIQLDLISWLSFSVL
T1 sequence (Q64537 87-270 partner limits assumed): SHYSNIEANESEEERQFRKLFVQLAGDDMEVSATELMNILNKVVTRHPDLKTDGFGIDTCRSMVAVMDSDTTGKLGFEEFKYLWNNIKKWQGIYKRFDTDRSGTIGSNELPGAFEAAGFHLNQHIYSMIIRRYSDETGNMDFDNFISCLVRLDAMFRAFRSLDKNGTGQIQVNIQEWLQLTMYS
Method: (§12) 1/ Fluorometer: SpectraMax Gemini XS Microplate fluoro-meter (molecular Devices).
Calpain 2: rat, recombinant, E. coli (Calbiochem)
as §1, §2
(§13) The medium is agitated between each measurement. The wavelengths used for detecting the fluorescence of the peptides are:
as §3, §4
(§14) Resuspension buffer for commercial calpains: 100 mM NaCl, 5 mM EDTA, 50 Mm TrisHCl, 5 mM β-mercaptoethanol, 40% glycerol, pH=7.8. Storage at ambient temperature. Resuspension buffer for the fluorescent peptides: the peptides are resuspended at 1 mg/ml in 100% DMSO.
as §5
(§15) Before verifying whether calpain 3 can cleave the peptides corresponding to its autolytic sites, a first assay consisted in verifying that these peptides (site 1, site 2, site 3) could not be cleaved by other proteases, in particular by ubiquitous calpains (see FIG. 2).

[4] = biological target: T2, Calpain 1 (Homo sapiens, UniProt P07384); assay: Assay of specificity of autolytic-site peptide cleavage (FRET fluorescence) by commercial calpain 1; assay type: biochemical; conditions: calpain 1, human erythrocytes; 10 mM CaCl2; peptide 1.9 μM; 37° C.; FIG. 2
T2 construct: Calpain 1: human erythrocytes (Calbiochem); purchased Calbiochem; host or cells: human erythrocytes
T2 sequence (P07384 1-714): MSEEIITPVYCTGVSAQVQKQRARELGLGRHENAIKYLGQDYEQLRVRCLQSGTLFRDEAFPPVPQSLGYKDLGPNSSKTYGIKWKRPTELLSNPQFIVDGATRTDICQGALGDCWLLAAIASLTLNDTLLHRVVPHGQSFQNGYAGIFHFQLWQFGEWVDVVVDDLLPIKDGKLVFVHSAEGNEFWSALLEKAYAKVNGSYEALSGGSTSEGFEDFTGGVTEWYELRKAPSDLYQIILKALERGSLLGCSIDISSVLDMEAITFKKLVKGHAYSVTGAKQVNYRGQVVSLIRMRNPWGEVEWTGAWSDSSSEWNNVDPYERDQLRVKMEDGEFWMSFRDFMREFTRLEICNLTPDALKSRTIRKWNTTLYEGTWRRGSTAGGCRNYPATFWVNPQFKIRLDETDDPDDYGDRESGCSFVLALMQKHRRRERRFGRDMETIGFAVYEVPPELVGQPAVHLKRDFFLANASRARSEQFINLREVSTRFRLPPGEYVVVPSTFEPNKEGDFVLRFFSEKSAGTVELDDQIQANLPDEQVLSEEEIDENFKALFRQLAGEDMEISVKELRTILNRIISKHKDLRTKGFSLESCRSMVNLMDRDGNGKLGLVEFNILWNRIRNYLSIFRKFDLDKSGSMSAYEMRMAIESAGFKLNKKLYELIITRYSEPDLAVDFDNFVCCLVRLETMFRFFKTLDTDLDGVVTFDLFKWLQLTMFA
T2 sequence (P04632 1-268 partner): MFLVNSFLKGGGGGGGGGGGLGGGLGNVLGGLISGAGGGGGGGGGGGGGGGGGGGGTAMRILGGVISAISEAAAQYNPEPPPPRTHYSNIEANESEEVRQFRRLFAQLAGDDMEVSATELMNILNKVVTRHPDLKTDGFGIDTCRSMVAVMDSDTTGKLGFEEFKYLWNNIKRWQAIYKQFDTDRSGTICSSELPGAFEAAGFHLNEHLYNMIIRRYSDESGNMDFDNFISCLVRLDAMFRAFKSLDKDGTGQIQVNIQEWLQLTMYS
Method: as §12
Calpain 1: human erythrocytes (Calbiochem)
as §1, §2, §13, §3, §4, §14, §5, §15

[5] = system: calpain 3; assay: Cleavage of autolytic-site peptides by extracts of normal (+/+) or calpain 3-deficient (−/−) mouse myoblasts; assay type: biochemical; conditions: myoblast extracts; for cleavage activity on the peptide / difference in cleavage activity between +/+ and −/− cells: reaction over 1 h, FIG. 4; for cleavage activity, +/+ versus −/− cell extracts: reaction over 6 h, FIG. 6
Method: as §1, §2, §3, §4, §5, §7, §8, §9, §10, §11, §6
The system is then assayed on extracts of cell cultures deficient or not deficient in calpain 3. To do this, mice deficient for the calpain 3 gene, for which myogenic cell cultures have been derived [Richard, 2000], are used. Extracts of cultures of calpain 3-deficient muscle cells (−/−cells) can therefore be compared with extracts of cultures of normal muscle cells (+/+cells). Initially, the assay was carried out on undifferentiated cells (myoblasts) (FIG. 4).

[6] = system: calpain 3; assay: Cleavage of autolytic site 3 peptide by extracts of normal (+/+) or calpain 3-deficient (−/−) mouse myotubes; assay type: biochemical; conditions: myotube extracts; FIG. 5
Method: as §1, §2, §3, §4, §5, §7, §8, §9, §10, §11, §6
Specifically, calpain 3 is theoretically expressed more in myotubes than in myoblasts.

Q: Which results are given for Mca-NMDNISLL-Dnp [site 2]?
A: activity of cleavage, +/+ versus −/− tissue extracts [1]: by the +/+ tissue extracts is greater than that of the −/−tissue extracts; difference in cleavage activity between calpain 3-transfected and untransfected cells [2]: no difference can be detected; activity of C2C12 extracts on the peptide (fluorescence) [2]: slight increase in fluorescence; cleavage activity on the peptide (fluorescence over time vs peptide without enzyme) [3]: no cleavage activity; cleavage activity on the peptide (fluorescence over time vs peptide without enzyme) [4]: no cleavage activity; cleavage activity on the peptide [5]: No cleavage activity could be detected; cleavage activity, +/+ versus −/− cell extracts [5]: greater in extracts of +/+cells

Q: What does the source list for “Mca-NMTYGTS-Dnp (Mca-NMTYGTS-{Dnp′}) [site 1, fluorescent FRET peptide of calpain 3 autolytic site 1, Mca donor and Dnp acceptor]”?
A: activity of cleavage, +/+ versus −/− tissue extracts [1]: by the +/+ tissue extracts is greater than that of the −/−tissue extracts; difference in cleavage activity between calpain 3-transfected and untransfected cells [2]: no difference can be detected; activity of C2C12 extracts on the peptide (fluorescence) [2]: slight increase in fluorescence; cleavage activity on the peptide (fluorescence over time vs peptide without enzyme) [3]: no cleavage activity; cleavage activity on the peptide (fluorescence over time vs peptide without enzyme) [4]: no cleavage activity; cleavage activity on the peptide [5]: low cleavage activity; difference in cleavage activity between +/+ and −/− cells [5]: very small; cleavage activity, +/+ versus −/− cell extracts [5]: greater in extracts of +/+cells

Q: How did the “activity of cleavage, +/+ versus −/− tissue extracts” value [1] turn out when “Mca-PVQYETR-Dnp (Mca-PVQYETR-{Dnp′}) [site 3, fluorescent FRET peptide of calpain 3 autolytic site 3, Mca donor and Dnp acceptor]” was run?
A: by the −/−tissue extracts is greater than that of the +/+tissue extracts

Q: And the “difference in cleavage activity between calpain 3-transfected and untransfected cells” value [2]?
A: greater in the transfected cells

Q: And the “cleavage activity on the peptide (fluorescence over time vs peptide without enzyme)” value [3]?
A: no cleavage activity

Q: And the “cleavage activity on the peptide (fluorescence over time vs peptide without enzyme)” value [4]?
A: no cleavage activity

Q: What about the “cleavage activity, −/− versus +/+ cell extracts” value [6] of the same substance?
A: in the extracts of −/−cells is greater than in the extracts of +/+cells

Q: And the “cleavage activity on the peptide” value [5]?
A: Cleavage activity is detected

Q: What about the “difference in cleavage activity between +/+ and −/− cells” value [5] of the same substance?
A: no difference in activity is visible

Q: What about the “cleavage activity, +/+ versus −/− cell extracts” value [5] of the same substance?
A: greater in extracts of −/−cells than in extracts of +/+cells
